{
  "source": "patent US20170165286A1",
  "about": "“COMPOSITIONS AND METHODS FOR TREATING DIABETES AND LIVER DISEASES” (Cempra Pharmaceuticals, Inc., priority 2014, published 2017)",
  "key": {"[1]": {"system": "BLM-induced pulmonary fibrosis model mice", "test": "Bleomycin-induced lung injury: lung histopathology (Masson's Trichrome, Ashcroft score, HE)", "type": "in vivo", "protocol": "(§1) Bleomycin-Induced Lung Injury. Lung inflammation is induced in female mice by a single intratracheal administration of bleomycin. Twenty mice are divided into two groups. From Day −2 to Day 6, one group is administered vehicle and the other is administered test drug, such as solithromycin orally at a dose of 100 mg/kg. It is to be understood herein that 100 mg/kg in mice is generally considered to be equivalent to a 450-500 mg, such as 480 mg, dose in humans. Animals are sacrificed on Day 7.\n(§2) Pathogen-free 7 weeks old female C57BL/6J mice are obtained from CLEA Japan (Tokyo, Japan) and allowed to acclimate at least 6 days. On day 0, twenty mice are induced to develop pulmonary fibrosis by a single intratracheal administration of bleomycin sulphate (BLM, Nippon Kayaku, Japan) in 0.9% saline in a volume of 50 μL per animal using a Microsprayer® (Penn-Century, USA). Individual body weight is measured daily during the experiment period. Survival, clinical signs and behavior of mice is monitored daily.\nSolithromycin Reduces Inflammation In Mice Caused By Bleomycin-Induced Lung Injury. […]\nHistopathological Analyses. […] The degree of pulmonary fibrosis was evaluated using the Ashcroft score (4) for the quantitative histological analysis."}, "[2]": {"system": "lung mRNA expression levels", "test": "Bleomycin-induced lung injury: quantitative RT-PCR of lung", "type": "in vivo", "settings": "bleomycin mice lung, normalized to GAPDH, vehicle 1.00, heading says 50 mg/kg q.d.", "protocol": "as §1, with “From Day −2 to Day 6, one group is administered vehicle and the other is administered test drug, such as solithromycin orally at a dose of 100 mg/kg.” left out\nas §2\nSolithromycin Reduces Inflammation In Mice Caused By Bleomycin-Induced Lung Injury. Pulmonary fibrosis is a problem in the management of patients who have received chemotherapy for malignancies particularly with regimens that contain bleomycin (BLM), methotrexate, cyclophosphamide, and many new agents. These patients are susceptible to pulmonary infections as well as to inflammation from pulmonary injury. […] The effects of solithromycin on the ability to prevent lung inflammation and fibrosis is described in a bleomycin induced-lung inflammation and fibrosis model. Group 1 (BLM-Vehicle): Ten BLM-induced pulmonary fibrosis model mice are orally administered vehicle (Carboxymethyl cellulose) at a volume of 10 mL/kg once daily from day −2 (two days before BLM administration) to day 6. […]\nQuantitative RT-PCR. Total RNA was extracted from lung samples using RNAiso (Takara Bio, Japan). One μg of RNA was reverse-transcribed using a reaction mixture containing 4.4 mM MgCl2 (Roche, Switzerland), 40 U RNase inhibitor (Toyobo, Japan), 0.5 mM dNTP (Promega, USA), 6.28 μM random hexamer (Promega), 5× first strand buffer (Promega), 10 mM dithiothreitol (Invitrogen) and 200 U MMLV-RT (Invitrogen) in a final volume of 20 μL. The reaction was carried out for 1 hour at 37° C., followed by 5 minutes at 99° C. Real-time PCR was performed using real-time PCR DICE and SYBR premix Taq (Takara Bio). To calculate the relative mRNA expression level, the expression of each gene was normalized to that of reference gene GAPDH.\nAnalyses of BALF (bronchoalveolar lavage fluid). The cells in BALF are counted with a hemocytometer, and cell differentials are determined in cytospin preparations stained with Diff-Quik (Sysmex, Japan) MMP-9 in the supernatants from BALF are quantified by an enzyme-linked immunosorbent assay (ELISA; Cat# MMPT90, R&D Systems, USA). Histopathological assays for lung sections are performed according to standard methods. […]"}, "[3]": {"system": "human FXR", "test": "FXR reporter cell assays (agonist and antagonist)", "type": "cell-based", "settings": "reporter cells, from 30 μM, 1:3 dilutions", "protocol": "FXR Signal Pathway. […] Solithromycin is tested in reporter cell assays expressing a hybrid FXR receptor (Indigo Biosciences, PA). Agonist and antagonist activity is measured. Solithromycin is tested starting at 30 μM and continuing with 1:3 dilutions. […] Without being bound by theory, it is believed herein that dependence upon the FXR pathway for activity in treating the diseases described herein may lead to increased triglycerides (TGs) and low density lipids (LDL) as an unwanted side effects. For example, patients with various forms of FLD may be at risk for cardiovascular disease, which may be aggravated by increased triglycerides and low density lipids."}},
  "data": [
    {"smiles": "CC[C@H]1OC(=O)[C@@](C)(F)C(=O)[C@H](C)[C@@H](O[C@@H]2O[C@H](C)C[C@H](N(C)C)[C@H]2O)[C@](C)(OC)C[C@@H](C)C(=O)[C@H](C)[C@H]2N(CCCCn3cc(-c4cccc(N)c4)nn3)C(=O)O[C@]12C", "note": "[solithromycin]", "values": [
      {"measurement": "HE staining: alveolar wall thickening, diffuse alveolar destruction, inflammatory cell infiltration vs vehicle", "setting": "[1]", "result": "no obvious differences"},
      {"measurement": "Ashcroft score", "setting": "[1]; vehicle 1.6±0.2", "result": "1.4±0.5"},
      {"measurement": "Relative MCP-1 mRNA expression", "setting": "[2]", "result": "0.38 ± 0.32"},
      {"measurement": "Relative MMP-9 mRNA expression", "setting": "[2]", "result": "0.42 ± 0.45"},
      {"measurement": "Relative TNF-α mRNA expression", "setting": "[2]; listed as SOLI", "result": "2.45 ± 2.10"},
      {"measurement": "Relative TNF-α mRNA expression", "setting": "[2]; listed as Solithromycin", "result": "up-regulated"},
      {"measurement": "Agonist activity", "setting": "[3]; hybrid FXR receptor", "result": "not show agonistic activity"},
      {"measurement": "Antagonist activity", "setting": "[3]; hybrid FXR receptor", "result": "nor significant antagonistic activity"},
      {"measurement": "Cytotoxicity in the antagonist assays", "setting": "[3]", "result": "does not show evidence of cytotoxicity"}
    ]}
  ]
}
